Experimental data from patent US20120124703A1, “NOVEL COPRINUS COMATUS AND TREMELLA MESENTERICA MUSHROOM STRAINS, PRODUCTS AND EXTRACTS THEREOF AND COMPOSITIONS COMPRISING THEM” (PALMED TEVA LTD, priority 2009, published 2012).
Read-outs that look alike come from different tables or passages of the source. Marks after values point to notes of the source that are not given here. *1 amine or outer side, *2 acyl side, *3 side chain or, on linkers, in order; H or OH if unused. Where a SMILES comes first, the peptide text is derived from it. Bridges are numbered along the chain shown (N, C = ends). Roman numbers before positions name the chains, in order. [ ]: non-standard residue; d: D form. Actinocin(9to1) = Cc1c2oc3c(C)ccc(C(=O)[*:1])c3nc-2c(C(=O)[*:2])c(N)c1=O; NMeV = CN[C@H](C(=O)O)C(C)C; Sar = CNCC(=O)O

Legend:
Coprinus comatus lectin = test: Sugar-binding specificity: inhibition of lectin-induced hemagglutination by carbohydrates; type: biochemical; details: for Inhibition of lectin hemagglutinating activity by sugar: Coprinus comatus biomass lectin
Description: Sugar-binding specificity of lectins. The investigation of inhibition of lectin-induced hemagglutination by various carbohydrates was performed in a manner analogous to the hemagglutination test. Sugar samples (0.3 M) were prepared in phosphate buffered saline. All of the dilutions were mixed with an equal volume (25 μL) of a solution of the lectin. The mixture was allowed to stand for 30 min at room temperature and then mixed with 50 μL of 2% rabbit erythrocyte suspension. Sugar-binding specificity was expressed as the minimum concentration of each sugar required for inhibition of hemagglutination of titer 4 of the lectin. N-Acetyl-D-galactosamine (GalNAc); N-Acetyl-D-glucosamine (GlcNAc), D(+)Galactose (Gal); D(+)Glucose, D(+)Lactose (Lac); D(+)Mannose, xylose, cellobiose, and dulcitol were tested for detection of sugar-binding specificity of lectins.

interferon (IFN) = test: IFN level in blood plasma of mice after per os biomass; type: in vivo; details: dose 50 mg/animal
[1] = tested on: Tobacco mosaic virus (TMV), strain U1; test: Influence of actinomycin D on GXM-induced resistance to TMV; type: in vivo, Nicotiana tabacum, variety Immune 580; details: FIG. 14
Description: Abscissa: variants of the experiment: 1—GXM; 2—mixture of GXM and AMD (10 μg/mL); 3—AMD (10 μg/mL) introduced 2 days after GXM; 4—AMD (20 μg/mL) introduced 2 days after GXM; 5—AMD (10 μg/mL). Ordinate: the ratio (%) of the quantity of local lesions in the experiment (dark solid bars) and in control (textured light bars).
When studying the GXM-induced mechanism of plant resistance, we used actinomycin D (AMD) inhibiting the DNA-dependent synthesis of mRNA by blocking RNA-polymerases. Solutions of AMD at the concentrations of 10 and 20 μg/mL and rhamnolipide (RL)−1 mg/mL, which were subepidermally introduced simultaneously or via definite periods of time after the GXM.

[2] = tested on: Tobacco mosaic virus (TMV), strain U1; test: Induction of resistance against TMV infection in tobacco; type: in vivo, Nicotiana tabacum, variety Immune 580; details: for Level of induced resistance, % / Number of local lesions per leaf, Experiment: Nicotiana tabacum Immune 580; for Level of resistance: GXM 1000 μg/mL, FIG. 11
From the text: Abscissa: interval between introduction of GXM and inoculation of TMV (days). Ordinate: the ratio (%) of the number of local lesions in the experiment (dark solid bars) and in control (textured light bars).
Abscissa: interval between introduction of GXM and inoculation of TMV (days). Ordinate: size of local lesions (mm) in the experiment (dark solid bars) and in control (textured light bars).
(§1) Virus: Tobacco mosaic virus (TMV), strain U1;
(§2) Plants: Tobacco (Nicotiana tabacum L.) variety Immune 580 and Datura stramonium L., cultivated in a hothouse under conditions of natural lighting, humidity, and temperature. Plants at a stage of 4-6 leaves were used in the experiment.
(§3) Investigations of induced properties of GXM were carried out on the tobacco and datura plants. […] The two halves of leaves were inoculated by TMV (1-5 μg/mL). The degree of AVR was taken into account by the formula mentioned above.

[3] = tested on: Tobacco mosaic virus (TMV), strain U1; type: in vivo; details: Datura stramonium
From the text: as §1, §2
Polysaccharides, extracted from culture liquid of Tremella mesenterica were employed in this study using the method of Kovalenko with some modifications. To isolate acid glucuronoxylomannan (GXM) from neutral polysaccharides, we applied its sedimentation from a water solution with acetone (1:1) in the presence of 0.05 M CaCl2. Gas chromatography was carried out on Sephadex G-50 (2.5×80 cm) in pyridinium-acetate buffer, pH 4.5 (4 mL pyridine and 10 mL AcOH in 1 L water) and the eluate was monitored by refractive index detector.
In in vitro experiments the water solutions of the total preparation, neutral polysaccharide preparations, and pure GXM at concentrations of 10, 100, 500, and 1000 μg/mL were added to a suspension of TMV (10 μg/mL). After incubation over the 30 min the left halves of datura's leaves were inoculated with this mixture. The right halves of leaves were inoculated with TMV at the same concentration without polysaccharides. The degree of inhibition of viral infection, or VIR, was counted (in percentage) according to the number of local lesions on the experimental and control halves of the leaves by the following formula: I=((K−D)/K) 100%, where I—is a degree of virus inhibition or level of AVR, %; K—is the number (size) of local lesions in the control; D—is the number (size) of local lesions in the experiment.

[4] = tested on: Tobacco mosaic virus (TMV), strain U1; test: Induction of resistance against TMV infection in Datura; type: in vivo; details: Datura stramonium
Description: as §1, §2, §3

IκBα phosphorylation = test: pIκBα level in H2O2-stimulated MCF7 cells, Western immunoblot; type: cell-based
Description: Cell Lysis, Preparation of Total Cell Lysates. In order to measure the intracellular levels of certain proteins as a response to the crude fungal extracttreatments, each time after cells were collected, a total cell lysis was performed. The exact procedure of the total cell lysis is described below.
Cells were collected and washed 3 times with cold phosphate buffered saline (PBS) through centrifugation for 5 min, at 3,000 rpm, and 4° C. The final cell amounts were collected in Eppendorf tubes and the left over PBS from the last washing was discarded so that only the cell pellet was left in each tube. For cell lysis, each time a freshly prepared lysis buffer was used with the following content: 500-1000 μL, depending on the number of samples, of cell lysis reagent, protease inhibitor cocktail, and both phosphatase inhibitor cocktails 1 and 2 at the final concentration of 1%, and 0.3 M of phenylmethylsulfonyl fluoride (PMSF). […]
As a control, no H2O2 treatment was used, according to which the kinetics of pIκBα were determined. […]
Densitometric Analysis. Densitometric quantitative analyses of the protein bands, detected by Western blot, have been carried out using the TotalLab software and are presented as folds of the volumes of protein bands. […]

Compound: O=C[C@H](O)[C@@H](O)[C@H](O[C@@H]1O[C@H](CO)[C@@H](O)[C@H](O)[C@H]1O)[C@H](O)CO [cellobiose]
- Inhibition of lectin hemagglutinating activity by sugar (Coprinus comatus lectin): did not inhibit

Compound: O=C[C@H](O)[C@@H](O)[C@H](O)CO [xylose]
- Inhibition of lectin hemagglutinating activity by sugar (Coprinus comatus lectin): did not inhibit

Compound: Poly I:C
- IFN titre (interferon (IFN); 6 hours): 320 units/ml
- IFN titre (interferon (IFN); 24 hours): 40 units/ml
- IFN titre (interferon (IFN); 48 hours): <20 units/ml

Compound: OC[C@@H](O)[C@H](O)[C@H](O)[C@@H](O)CO [dulcitol]
- Inhibition of lectin hemagglutinating activity by sugar (Coprinus comatus lectin): did not inhibit

Compound: Cc1c2oc3c(C)ccc(C(=O)N[C@@H]4C(=O)N[C@H](C(C)C)C(=O)N5CCC[C@H]5C(=O)N(C)CC(=O)N(C)[C@@H](C(C)C)C(=O)O[C@@H]4C)c3nc-2c(C(=O)N[C@@H]2C(=O)N[C@H](C(C)C)C(=O)N3CCC[C@H]3C(=O)N(C)CC(=O)N(C)[C@@H](C(C)C)C(=O)O[C@@H]2C)c(N)c1=O [AMD, actinomycin D] (I: T[dV]P[Sar][NMeV] / II: T[dV]P[Sar][NMeV]; ester I:1-I:C, II:1-II:C; linker I:N-II:N via Actinocin(9to1))
- Inhibition of development of GXM-induced AVR ([1]; AMD 10 μg/mL): completely
- Inhibition of development of GXM-induced AVR ([1]; AMD 20 μg/mL): partly

Compound: OC[C@H]1O[C@@H](O[C@H]2[C@H](O)[C@@H](O)C(O)O[C@@H]2CO)[C@H](O)[C@@H](O)[C@H]1O (stereo partly drawn) [Lactose, D(+)Lactose]
- MIC of saccharides (Coprinus comatus lectin; lactose, minimal concentration inhibiting hemagglutination): 780 µM

Compound: glucuronoxylomannan [GXM]
- Level of induced resistance, % ([2]; 100 μg/mL): 20%
- Number of local lesions per leaf, Experiment ([2]; 100 μg/mL): 98.1
- Level of induced resistance, % ([2]; 500 μg/mL): 20%
- Number of local lesions per leaf, Experiment ([2]; 500 μg/mL): 102.7
- Level of induced resistance, % ([2]; 1000 μg/mL): 17* %
- Number of local lesions per leaf, Experiment ([2]; 1000 μg/mL): 128.5
- Size of local lesions, experiment vs control ([2]; 1000 μg/mL, tobacco): reliable differences were not observed
- Level of induced resistance, % ([2]; 2000 μg/mL): 52** %
- Number of local lesions per leaf, Experiment ([2]; 2000 μg/mL): 63.4
- Growth (size) of TMV local lesions ([2]; 2500 μg/mL, tobacco, FIG. 13): intensifies the growth of viral lesions
- Development of AVR relative to TMV ([2]; 1000 and 2500 μg/mL, first day after the inducer, tobacco): induces the development of AVR
- Level of resistance ([2]; 5th day after the inducer, tobacco): 30%
- Level of resistance ([2]; 7th day after the inducer, tobacco): 20%
- Number of local lesions per leaf, Experiment ([3]; 10 μg/mL): 26.5
- Inhibition, % ([3]; 100 μg/mL): 16* %
- Number of local lesions per leaf, Experiment ([3]; 100 μg/mL): 4.5
- Number of local lesions per leaf, Experiment ([3]; 1000 μg/mL): 1.3
- Level of induced resistance, % ([4]; 100 μg/mL): 110%
- Number of local lesions per leaf, Experiment ([4]; 100 μg/mL): 71.2
- Level of induced resistance, % ([4]; 500 μg/mL): 90%
- Number of local lesions per leaf, Experiment ([4]; 500 μg/mL): 90.0
- Level of induced resistance, % ([4]; 1000 μg/mL): 14* %
- Number of local lesions per leaf, Experiment ([4]; 1000 μg/mL): 119.9
- Level of induced resistance, % ([4]; 2000 μg/mL): 33** %
- Number of local lesions per leaf, Experiment ([4]; 2000 μg/mL): 119.6

Compound: COc1cc(/C=C/C(=O)CC(=O)/C=C/c2ccc(O)c(OC)c2)ccc1O [curcumin]
- pIκBα level (IκBα phosphorylation; 10 μM, 100 μM H2O2, preliminary data): significantly inhibited
- Effect on IκBα phosphorylation (IκBα phosphorylation; MCF7, 10 min 100 μM H2O2, FIG. 2): high phospho-IkBα inhibitory effect
